The text below walks through data of patent US6756233B1, “Method for measuring free ligands in biological fluids, and assay kits for measuring same” (priority 1985, dated 2004).

“And” between values parts separate entries of the source, which are not always exact repeats. Equal values may be shown once. Read-outs that look alike come from different tables or passages of the source.

For one assay, the system named is transport proteins. Particulars: single samples. How it is done:
Free testosterone calibrators, prepared by adding different amounts of testosterone to human serum free of any apparent testosterone, were calibrated by direct equilibrium dialysis and assigned free testosterone values in pg/ml. […] The tubes are incubated for 4 hours at 37° C., then decanted and radioactivity counted. Results are computed by interpolation to from the calibration curve.

Assay [1] addresses T1, sex hormone-binding globulin (SHBG) (Homo sapiens, UniProt P04278).
T1 sequence (P04278 30-402): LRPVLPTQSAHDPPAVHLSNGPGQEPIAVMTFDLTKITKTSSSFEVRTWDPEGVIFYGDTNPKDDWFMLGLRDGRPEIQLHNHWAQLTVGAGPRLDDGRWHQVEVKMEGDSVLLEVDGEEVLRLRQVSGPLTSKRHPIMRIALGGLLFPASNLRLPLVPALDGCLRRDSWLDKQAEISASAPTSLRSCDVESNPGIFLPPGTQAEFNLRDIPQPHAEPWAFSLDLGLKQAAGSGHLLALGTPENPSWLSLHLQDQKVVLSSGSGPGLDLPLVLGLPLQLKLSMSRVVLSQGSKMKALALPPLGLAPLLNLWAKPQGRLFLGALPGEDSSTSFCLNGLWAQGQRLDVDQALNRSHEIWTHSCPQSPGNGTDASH
As to the kind of experiment: Free testosterone assay, SHBG-spiked serum pool (Example 3). Particulars: charcoal-absorbed human serum pool spiked with 400 μg SHBG/milliliter.
Procedure: To investigate the effect of sex hormone-binding globulin (SHBG) levels on the free testosterone assay system, a charcoal-absorbed human serum pool was spiked with 400 μg SHBG/milliliter, a level which is approximately 10 times normal.
Since charcoal absorption removes testosterone from the serum pool, it should have free (and total) testosterone concentrations of zero—that is, percent bound values of approximately 100% B/Bo—both before and after spiking.

The next assay relates to albumin and/or SHBG. Details: species or system human.
Assay [2] addresses T2, albumin (Homo sapiens, UniProt P02768). As to conditions: cited from earlier work.
Assay [3] deals with T2, albumin. The assay is described as follows: Free testosterone assay, effect of oleic acid (Example 6). Also on record: from tissue; host or cells: patient serum samples. Here is the method: Since non-esterified free fatty acids (NEFA) have a higher association constant to albumin than does testosterone, addition of NEFA should displace free testosterone from albumin. This was confirmed by an experiment in which various amounts of oleic acid were added to each of three patient samples.

For assay [4], the system named is anti-T4 antibody-coated tubes. As to the kind of experiment: Free T4 assay of 20 samples with tracers holding different blocking agents (Example 5). Details: species or system rabbits. Here is the method: The tubes are then incubated for 60 minutes at 37° C. After this incubation the tubes are decanted and the bound radioactivity is counted. Results are calculated from the calibration curve and expressed in ng/dl.
Iodinated T4 analog was compounded as described above and divided into five aliquots. To each aliquot the following reagents were added.
Considering tracer 1 as the reference and comparing the others to it, the following results were obtained.

T2 sequence (P02768 25-609): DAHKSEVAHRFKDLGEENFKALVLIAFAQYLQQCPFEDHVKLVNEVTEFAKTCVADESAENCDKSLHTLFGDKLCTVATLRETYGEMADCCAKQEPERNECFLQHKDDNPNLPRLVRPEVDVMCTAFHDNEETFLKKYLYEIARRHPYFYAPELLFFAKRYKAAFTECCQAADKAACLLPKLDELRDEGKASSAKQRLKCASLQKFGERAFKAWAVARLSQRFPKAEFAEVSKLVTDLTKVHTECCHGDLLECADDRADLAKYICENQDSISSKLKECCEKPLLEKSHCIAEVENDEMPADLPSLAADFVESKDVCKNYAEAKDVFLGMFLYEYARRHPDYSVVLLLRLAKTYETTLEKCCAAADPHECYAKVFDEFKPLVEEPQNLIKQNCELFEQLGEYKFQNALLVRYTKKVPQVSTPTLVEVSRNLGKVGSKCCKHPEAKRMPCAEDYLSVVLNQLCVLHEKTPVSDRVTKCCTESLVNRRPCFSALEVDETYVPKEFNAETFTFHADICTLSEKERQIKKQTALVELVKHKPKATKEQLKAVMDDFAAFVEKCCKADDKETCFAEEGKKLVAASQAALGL
Procedure for albumin and/or SHBG: Testosterone was selected as a representative member of this family. […] This analog tracer was subsequently compounded in 0.01 M HEPES buffer, pH=7.4, containing 1 mg/ml charcoal-absorbed human serum albumin and 0.01% sodium azide. Blocking agents were added, as described in the specific examples below.

“6-hydroxytestosterone-19-carboxymethyl ether histamine”: the “percent bound (% B/Bo) After charcoal absorption” value with transport proteins (3rd Trimester) was 99% and 96% and 97%; with transport proteins (Normal Females), 105% and 104%. Besides, the “binding to endogenous binders” value in the assay on endogenous binders was “does not bind to endogenous binders”. Moreover, in assay [1], the “percent bound value, B/Bo” value was 99%.

As to `O=[N+]([O-])c1ccc(O)c([N+](=O)[O-])c1` [2,4-dinitrophenol], the “effect on protein-bound testosterone and tracer” value in the assay with albumin and/or SHBG is listed as “displace testosterone from albumin and/or SHBG”. For the same molecule, the “association constant, albumin (single aromatic compounds)” value at albumin [2] is recorded as 11,000.

For `O=S(=O)(O)c1cccc2cccc(Nc3ccccc3)c12` [ANS, 8-anilino-1-naphthalenesulfonic acid], in the assay on albumin and/or SHBG, the “effect on protein-bound testosterone and tracer” value is “displace testosterone from albumin and/or SHBG”.

As for `CCCCCCCC/C=C\CCCCCCCC(=O)O` [oleic acid], the “apparent free testosterone level, Mean” value at albumin [3] (Oleic Acid Added 2.5 mmol/l) is 7.9 pg/mL; at albumin [3] (Oleic Acid Added 5.0 mmol/l) it was 14.8 pg/mL; on albumin [3] (Oleic Acid Added 7.5 mmol/l), 23.2 pg/mL; on albumin [3] (Oleic Acid Added 10.0 mmol/l) it was 32.0 pg/mL. In addition, the “apparent free testosterone level, Patients 1-3” value at albumin [3] (Oleic Acid Added 5.0 mmol/l) is 11.6 pg/mL and 11.1 pg/mL and 21.8 pg/mL. Also, the “oleic acid concentration in the tracer that displaces bound unlabeled T4 from albumin” value in assay [4] is “greater than 1.0 mmol/l”.

As to `O=C1OC(c2ccc(O)c(S(=O)(=O)O)c2)(c2ccc(O)c(S(=O)(=O)O)c2)c2c(Br)c(Br)c(Br)c(Br)c21` [sulfobromophthalein], the “effect on protein-bound testosterone and tracer” value in the assay on albumin and/or SHBG is “inhibits the binding of the analog tracer to albumin without displacing testosterone bound to albumin”.
